Data reported in the supplement of paper PMC10307832.

Tests used:
Assay in all cases: relative viability (nuclei count vs DMSO), 5 days (fraction); higher = more cells survive
Tozasertib + Foretinib = compound: Cc1cc(Nc2cc(N3CCN(C)CC3)nc(Sc3ccc(NC(=O)C4CC4)cc3)n2)n[nH]1 [Tozasertib] + COc1cc2c(Oc3ccc(NC(=O)C4(C(=O)Nc5ccc(F)cc5)CC4)cc3F)ccnc2cc1OCCCN1CCOCC1 [Foretinib] (partner 0.25 µM)
In short: (§1)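 Lung cancer cell lines in 1536-well plates got either a single drug or a fixed anchor-drug dose together with five library-drug doses (not always all listed) in √10 steps, by pin tool, on the day after seeding. Nuclei were counted after 5 days, and relative viability is the treated-to-vehicle ratio of nuclei counts. Values are medians of duplicate plates.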

Tozasertib + Olaparib = compound: Cc1cc(Nc2cc(N3CCN(C)CC3)nc(Sc3ccc(NC(=O)C4CC4)cc3)n2)n[nH]1 [Tozasertib] + O=C(c1cc(Cc2n[nH]c(=O)c3ccccc23)ccc1F)N1CCN(C(=O)C2CC2)CC1 [Olaparib] (partner 8 µM)
In short: as §1

Tozasertib + Pictilisib = compound: Cc1cc(Nc2cc(N3CCN(C)CC3)nc(Sc3ccc(NC(=O)C4CC4)cc3)n2)n[nH]1 [Tozasertib] + CS(=O)(=O)N1CCN(Cc2cc3nc(-c4cccc5[nH]ncc45)nc(N4CCOCC4)c3s2)CC1 [Pictilisib] (partner 1 µM)
In short: as §1

Tozasertib + Crizotinib = compound: Cc1cc(Nc2cc(N3CCN(C)CC3)nc(Sc3ccc(NC(=O)C4CC4)cc3)n2)n[nH]1 [Tozasertib] + C[C@@H](Oc1cc(-c2cnn(C3CCNCC3)c2)cnc1N)c1c(Cl)ccc(F)c1Cl [Crizotinib] (partner 1 µM)
In short: as §1

Tozasertib + Linsitinib = compound: Cc1cc(Nc2cc(N3CCN(C)CC3)nc(Sc3ccc(NC(=O)C4CC4)cc3)n2)n[nH]1 [Tozasertib] + C[C@]1(O)C[C@@H](c2nc(-c3ccc4ccc(-c5ccccc5)nc4c3)c3c(N)nccn32)C1 [Linsitinib] (partner 1 µM)
In short: as §1

Cell Line	relative viability (Tozasertib + Foretinib; first compound 0.004 µM)	relative viability (Tozasertib + Foretinib; first compound 0.01265 µM)	relative viability (Tozasertib + Foretinib; first compound 0.04 µM)	relative viability (Tozasertib + Foretinib; first compound 0.1265 µM)	relative viability (Tozasertib + Olaparib; first compound 0.004 µM)	relative viability (Tozasertib + Olaparib; first compound 0.01265 µM)	relative viability (Tozasertib + Olaparib; first compound 0.04 µM)	relative viability (Tozasertib + Olaparib; first compound 0.1265 µM)	relative viability (Tozasertib + Pictilisib; first compound 0.004 µM)	relative viability (Tozasertib + Pictilisib; first compound 0.01265 µM)	relative viability (Tozasertib + Pictilisib; first compound 0.04 µM)	relative viability (Tozasertib + Pictilisib; first compound 0.1265 µM)	relative viability (Tozasertib + Crizotinib; first compound 0.004 µM)	relative viability (Tozasertib + Crizotinib; first compound 0.01265 µM)	relative viability (Tozasertib + Crizotinib; first compound 0.04 µM)	relative viability (Tozasertib + Crizotinib; first compound 0.1265 µM)	relative viability (Tozasertib + Linsitinib; first compound 0.004 µM)	relative viability (Tozasertib + Linsitinib; first compound 0.01265 µM)	relative viability (Tozasertib + Linsitinib; first compound 0.04 µM)	relative viability (Tozasertib + Linsitinib; first compound 0.1265 µM)
NCI-H2023	0.747	0.968	0.94	0.652	0.486	0.459	0.553	0.342	0.306	0.287	0.296	0.0957	0.717	0.704	0.611	0.403	0.626	0.633	0.694	0.628
NCI-H2085	1.03	0.767	1.03	0.703	0.82	0.752	0.782	0.711	0.454	0.421	0.486	0.266	0.953	0.959	0.667	0.597	0.966	0.865	0.949	0.649
NCI-H2087	1.16	0.796	1.15	0.613	0.595	0.645	0.609	0.456	0.928	0.885	0.933	0.714	0.837	0.865	0.804	0.658	0.925	1.13	1.08	0.841
NCI-H2126	1.19	1.24	1.29	1.12	0.962	0.939	0.971	0.92	0.505	0.529	0.532	0.426	1.17	1.03	1.09	0.996	0.623	0.728	0.825	0.716
NCI-H2228	0.947	0.803	0.851	0.356	0.616	0.511	0.622	0.366	0.509		0.326	0.355	0.487		0.452	0.186	0.526		0.766	0.557
NCI-H2347	1.17	0.908	0.842	0.87	0.528	0.616	0.697	0.582	0.723	0.763	0.648	0.389	0.722	0.71		0.723	0.978	1	0.964	0.914
NCI-H2405	1.09	1	1.01	0.974	0.913		0.691		0.386	0.478	0.479	0.396	0.844	0.83	0.857	0.67	1.03	0.944		0.962
NCI-H3122	0.969	0.94	0.977	0.944	0.646	0.67	0.62	0.641	0.626	0.49	0.656	0.61	0.26	0.287	0.289	0.277	0.994	0.997	0.962	1.05
